# Source: paper PMC6545112 (Journal of medicinal chemistry, 2018)
# “Also recorded” adds a separate entry of the source. Like-named read-outs stand apart in the source and are kept apart here.
# What was measured:
# RS4;11 cell line = assay: cell growth inhibition, WST-8 assay, RS4; type: cell-based, human; details: for IC50: 4 days, WST-8 assay
# [1] = first efficacy experiment
# [2] = molecular target: MDM2 and p53 proteins in RS4;11 cells (Homo sapiens, UniProt Q00987); assay: western blotting analysis of MDM2 and p53 proteins in RS4; type: cell-based
# MV4;11 AML cell line = assay: cell growth inhibition, MV4; type: cell-based, human
# [3] = system: p53 target genes (MDM2, p21, PUMA) and TP53 in RS4;11 cells; assay: qRT-PCR analysis of mRNA levels of p53 target genes and TP53 in RS4; type: cell-based, human; details: RS4;11, 6 h
# RS4;11 xenograft tumors = assay: antitumor activity in the RS4; type: in vivo, mice
# [4] = system: leukemia cell lines with mutated p53; assay: cell growth inhibition, leukemia cell lines with mutated p53; type: cell-based, human; details: read-out: IC50 in leukemia cell lines with mutated p53
# [5] = system: MDM2, p53, p21 and PARP cleavage in RS4;11 xenograft tumors; details: single dose, mice; cited from earlier work
# ML-2 = assay: cell growth inhibition assay, ML-2; type: cell-based, human; details: read-out: IC50 (nM) in cell growth inhibition assay; ML-2, AML, p53 WT
# [6] = system: human acute leukemia cell lines with wild-type p53; assay: cell growth inhibition, panel of acute leukemia cell lines with wild-type p53; type: cell-based
# RS4;11 cells = assay: flow cytometric analysis of apoptosis, Annexin V/PI double staining; type: cell-based, human; details: RS4;11, 24 h treatment
# KG-1 = assay: cell growth inhibition assay, KG-1; type: cell-based, human; details: read-out: IC50 in cell growth inhibition assay; KG-1, AML, p53 MUT
# SIG-M5 = assay: cell growth inhibition assay, SIG-M5; type: cell-based, human; details: read-out: IC50 (nM) in cell growth inhibition assay; SIG-M5, AML, p53 WT
# Mono-Mac-6 = assay: cell growth inhibition assay, Mono-Mac-6; type: cell-based, human; details: read-out: IC50 in cell growth inhibition assay; Mono-Mac-6, AML, p53 MUT
# MOLM-14 = assay: cell growth inhibition assay, MOLM-14; type: cell-based, human; details: read-out: IC50 (nM) in cell growth inhibition assay; MOLM-14, AML, p53 WT
# MOLM-13 = assay: cell growth inhibition assay, MOLM-13; type: cell-based, human; details: read-out: IC50 (nM) in cell growth inhibition assay; MOLM-13, AML, p53 WT
# [7] = system: MDM2, p53, p21 and PARP cleavage in RS4;11 xenograft tumors; assay: pharmacodynamic analysis in RS4; type: in vivo, mice; details: single dose 25 mg/kg, IV
# OCL-AML-5 = assay: cell growth inhibition assay, OCL-AML-5; type: cell-based, human; details: read-out: IC50 (nM) in cell growth inhibition assay; OCL-AML-5, AML, p53 WT
# [8] = molecular target: MDM2 and p53 proteins in MV4;11 cell line (Homo sapiens, UniProt Q00987); assay: western blotting analysis of MDM2 and p53 proteins in MV4; type: cell-based; details: MV4;11, 2 h, compared to RS4;11
# [9] = read-out: IC50 (nM) in inhibition of cell growth in the RS4;11 cell line
# Sequence of MDM2 and p53 proteins in RS4;11 cells (Q00987 whole entry): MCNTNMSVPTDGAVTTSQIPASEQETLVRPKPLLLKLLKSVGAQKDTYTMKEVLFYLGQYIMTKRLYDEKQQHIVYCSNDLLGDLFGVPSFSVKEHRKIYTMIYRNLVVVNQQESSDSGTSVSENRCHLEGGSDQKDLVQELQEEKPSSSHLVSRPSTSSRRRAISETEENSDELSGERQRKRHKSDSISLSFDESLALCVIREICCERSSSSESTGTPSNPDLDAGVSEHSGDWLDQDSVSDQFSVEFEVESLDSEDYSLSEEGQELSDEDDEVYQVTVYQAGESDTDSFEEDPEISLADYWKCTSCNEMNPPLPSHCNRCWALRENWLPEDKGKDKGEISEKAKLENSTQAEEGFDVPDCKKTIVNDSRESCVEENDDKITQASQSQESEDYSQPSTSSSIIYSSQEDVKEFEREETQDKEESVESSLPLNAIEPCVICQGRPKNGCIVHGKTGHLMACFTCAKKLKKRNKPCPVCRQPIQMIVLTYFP
# Sequence of MDM2 and p53 proteins in MV4;11 cell line (Q00987 whole entry): as above
compound,measurement,setting,value
"O=C(O)c1ccc(NC(=O)[C@@H]2NC3(CCCCC3)[C@@]3(C(=O)Nc4cc(Cl)ccc43)[C@H]2c2cccc(Cl)c2F)cc1 [MI-1061, reference compound]",effect of pretreatment with lenalidomide on cell growth inhibitory activity,"RS4;11 cell line; RS4;11, 4 days, WST-8",no significant effect
same,weight loss or other signs of toxicity,[1],no significant weight loss or other signs of toxicity
same,effect on MDM2 and p53 protein levels (western blotting),"[2]; RS4;11 cells, 2 h treatment",inducing accumulation of both MDM2 and p53; also recorded: induces accumulation of both MDM2 and p53 proteins
same,effect of pretreatment with lenalidomide on cell growth inhibitory activity,MV4;11 AML cell line,has no effect on the activity
same,"transcriptional upregulation of p53 target genes (MDM2, p21, PUMA)",[3],effectively induces marked transcriptional upregulation of p53 target genes
same,antitumor activity,"RS4;11 xenograft tumors; 100 mg/kg, oral, daily dosing (5 days a week)",effectively retards tumor growth over the control
same,IC50,[4]; Homo sapiens,> 10000 nM
CC(C)(C)C[C@@H]1N[C@@H](C(=O)N[C@H]2CC[C@H](O)CC2)[C@H](c2cccc(Cl)c2F)[C@]12C(=O)Nc1cc(Cl)ccc12 [MI-77301],duration of p53 protein upregulation in tumor tissue,[5],only a few hours
"(3’R,4’S,5’R)-6”-Chloro-4’-(3-Chloro-2-fluorophenyl)-N-(4-((5-(2-(2,6-dioxopiperidin-3-yl)-1,3-dioxoisoindolin-4-yl)pent-4-yn-1-yl)carbamoyl)phenyl)-2”-oxodispiro[cyclohexane-1,2’-pyrrolidine-3’,3”-indoline]-5’-carboxamide [Compound 14]",times more potent than MD-222 in inhibition of cell growth,RS4;11 cell line; RS4;11,2 times
same,IC50,RS4;11 cell line; [9],1.5 ± 0.5 nM
same,IC50,ML-2,4.4 ± 2 nM
same,times more potent than MI-1061 in cell growth inhibition,[6],> 10 times
same,times more potent than MI-1061 in inducing apoptosis,RS4;11 cells,> 10 times
same,IC50,KG-1,> 10000 nM
same,IC50,SIG-M5,19.8 ± 11 nM
same,IC50,Mono-Mac-6,> 10000 nM
same,IC50,MOLM-14,10.5 ± 3 nM
same,IC50,MOLM-13,7.3 ± 3 nM
same,effect on TP53 mRNA,[3],have no effect on TP53
same,times more potent than MI-1061 in transcriptional upregulation of p53 target genes,[3],> 10 times
same,PARP cleavage in tumor tissue,[7],evident at the 24 h time point
same,persistence of MDM2 protein depletion in tumor tissue,[7]; depleted at 3 h,> 24 h
same,duration of p53 and p21 upregulation in tumor tissue,[7]; strong at 3 h,> 24 h
same,IC50,OCL-AML-5,33.1 ± 18 nM
same,antitumor activity,"RS4;11 xenograft tumors; 25 mg/kg, daily, 5 days a week for 2 weeks",complete tumor regression
same,antitumor activity,"RS4;11 xenograft tumors; 50 mg/kg, every other day for three weeks",complete tumor regression
same,antitumor activity,"RS4;11 xenograft tumors; 50 mg/kg, weekly dosing",complete tumor growth inhibition
same,IC50,[4],> 10000 nM
"(3’R,4’S,5’R)-6”-Chloro-4’-(3-Chloro-2-fluorophenyl)-N-(4-((5-(2-(2,6-dioxopiperidin-3-yl)-1-oxoisoindolin-4-yl)pentyl)carbamoyl)phenyl)-2”-oxodispiro[cyclohexane-1,2’-pyrrolidine-3’,3”-indoline]-5’-carboxamide [Compound 13]",times more potent than 1 in inhibition of cell growth,RS4;11 cell line; RS4;11,4 times
same,IC50,RS4;11 cell line; [9],2.8 ± 1.1 nM
same,IC50,ML-2,11.5 ± 6 nM
same,concentration that reduces/depletes MDM2 protein,"[2]; RS4;11 / leukemia cells, 2 h treatment",≤ 1 nM
same,IC50,KG-1,> 10000 nM
same,IC50,SIG-M5,29.9 ± 16 nM
same,IC50,Mono-Mac-6,> 10000 nM
same,IC50,MOLM-14,22.5 ± 8 nM
same,IC50,MOLM-13,11.7 ± 4 nM
same,effect on TP53 mRNA,[3],have no effect on TP53
same,times more potent than MI-1061 in transcriptional upregulation of p53 target genes,[3],> 10 times
same,effect on MDM2 and p53 protein levels (western blotting),[8],similarly potent and effective in inducing depletion of MDM2 protein and accumulation of p53 protein
same,IC50,OCL-AML-5,58.2 ± 29 nM
"(3’R,4’S,5’R)-6”-Chloro-4’-(3-Chloro-2-fluorophenyl)-N-(4-((5-(2-(2,6-dioxopiperidin-3-yl)-3-oxoisoindolin-5-yl)pent-4-yn-1-yl)carbamoyl)phenyl)-2”-oxodispiro[cyclohexane-1,2’-pyrrolidine-3’,3”-indoline]-5’-carboxamide [Compound 17]",times less potent than MD-224 in inhibition of cell growth,RS4;11 cell line; RS4;11,3 times
same,IC50,RS4;11 cell line; [9],5 ± 3 nM
same,effect on MDM2 and p53 protein levels (western blotting),"[2]; RS4;11 cells, 2 h treatment",effectively induce degradation of MDM2 and accumulation of p53
"(3’R,4’S,5’R)-6”-Chloro-4’-(3-Chloro-2-fluorophenyl)-N-(4-(((S)-14-((2S,4R)-4-hydroxy-2-(((S)-1-(4-(4-methylthiazol-5-yl)phenyl)ethyl)carbamoyl)pyrrolidine-1-carbonyl)-15,15-dimethyl-12-oxo-3,6,9-trioxa-13-azahexadecyl)carbamoyl)phenyl)-2”-oxodispiro[cyclohexane-1,2’-pyrrolidine-3’,3”-indoline]-5’-carboxamide [Compound 20]",IC50,RS4;11 cell line; [9],340 ± 20 nM
same,IC50,RS4;11 cell line; read-out: IC50 in the cell growth assay in the RS4;11 cell line,300 nM
same,effect on MDM2 protein level (western blotting),"[2]; RS4;11 cells, 12 h treatment",fails to reduce the level of MDM2 protein
"(3’R,4’S,5’R)-6”-Chloro-4’-(3-chloro-2-fluorophenyl)-N-(4-((2-(2,6-dioxopiperidin-3-yl)-1-oxoisoindolin-4-yl)carbamoyl)phenyl)-2”-oxodispiro[cyclohexane-1,2’-pyrrolidine-3’,3”-indoline]-5’-carboxamide [Compound 3]",IC50,RS4;11 cell line; [9],68.4 ± 36 nM
same,effect on MDM2 and p53 protein levels (western blotting),"[2]; RS4;11 cells, 2 h treatment",fails to induce MDM2 degradation
